Structures are written as SMILES. The source made the active and inactive calls. No cut-off for these calls is given here.

The record followed here is ChEMBL document CHEMBL2413019, “Structure-activity-relationship studies on dihydrofuran-fused perhydrophenanthrenes as an anti-Alzheimer's disease agent” (Bioorg Med Chem, 2013).

Data set [1] is described as follows: Cytotoxicity against Sprague-Dawley rat cortical neurons assessed as cell viability after 48 hrs by CellTiter-Glo luminescent assay. Conditions: cortical neurone. For orientation: ATP-based viability assays read luminescence as a measure of living cells.
Data set [2] relates to Cortical neurone. Briefly: Antialzheimer activity in amyloid beta (25 to 35)-treated Sprague-Dawley rat cortical neurons assessed as dendrite extension activity at 1 uM after 4 days by fluorescence microscopic analysis. It is filed as functional.
Data set [3] relates to Cortical neurone. Kind of data set: Antialzheimer activity in amyloid beta (25 to 35)-treated Sprague-Dawley rat cortical neurons assessed as dendrite extension activity at 10 uM after 4 days by fluorescence microscopic analysis. It is filed as functional.
Data set [4] is described as follows: Cytotoxicity against Sprague-Dawley rat cortical neurons assessed as cell viability at 1 to 10 uM after 48 hrs by CellTiter-Glo luminescent assay. Conditions: cortical neurone.

For the compound `N#C[C@]12CC=CC3=CO[C@H](Cc4ccc(O)cc41)[C@@H]32`, the Activity entry in data set [1] is listed as “Dose-dependent effect”.

In the case of `C#Cc1cc2c(cc1O)[C@]1(C#N)CC=CC3=CO[C@H](C2)[C@@H]31`, the outcome in data set [2] was inactive. Moreover, in data set [3], the outcome was Active. In addition, the Activity entry in data set [1] is on record as “Dose-dependent effect”.

In the case of `CCOc1cc2c(cc1O)[C@]1(C#N)CCC3(OCCO3)C3=CO[C@H](C2)[C@@H]31`, in data set [2], the result was Active.

As to `N#C[C@]12CCC3(OCCO3)C3=CO[C@H](Cc4cc(I)c(O)cc41)[C@@H]32`, the Activity entry in data set [1] is listed as “Dose-dependent effect”.

With `N#C[C@]12CCC[C@@H]3CO[C@H](Cc4ccc(O)cc41)[C@@H]32`, the result in data set [2] was inactive. Also, the result in data set [3] was Active. Also, the Activity result in data set [1] is given as “Dose-dependent effect”.

For the compound `N#C[C@]12CCC3(OCCO3)[C@@H]3CO[C@H](Cc4ccc(O)cc41)[C@@H]32`, in data set [2], the outcome was Active.

For the compound `N#C[C@]12CC=CC3=CO[C@H](Cc4cc(-c5ccccc5)c(O)cc41)[C@@H]32`, the Activity result in data set [1] was “Dose-dependent effect”.

Turning to `N#C[C@]12CCC3(OCCO3)C3=CO[C@H](Cc4cc(C#CCCO)c(O)cc41)[C@@H]32`, in data set [1], the Activity result is recorded as “Dose-dependent effect”.

On to `Oc1ccc2c(c1)[C@@H]1CCC3(OCCO3)C3=CO[C@H](C2)[C@@H]31`, for which, in data set [2], the outcome was inactive.

`N#C[C@]12CC=CC3=CO[C@H](Cc4cc(C#CCCO)c(O)cc41)[C@@H]32`: the outcome in data set [2] was Active. In addition, the result in data set [3] was inactive. Besides, the Activity result in data set [1] is reported as “Dose-dependent effect”.

With `CCCCCCCCC/C=C/c1cc2c(cc1O)[C@]1(C#N)CCC3(OCCO3)C3=CO[C@H](C2)[C@@H]31`, the outcome in data set [2] was Active. Besides, the result in data set [3] was inactive. Also, in data set [1], the Activity entry was “Dose-dependent effect”.

On to `N#C[C@]12CCC3(OCCO3)C3=CO[C@H](Cc4cc(O)c(O)cc41)[C@@H]32`, for which the result in data set [2] was inactive.

On to `N#C[C@]12CCC3(OCCO3)C3=CO[C@H](Cc4cc(Sc5ccccc5)c(O)cc41)[C@@H]32`, for which the outcome in data set [2] was Active.

`C#Cc1cc2c(cc1O)[C@]1(C#N)CCC3(OCCO3)C3=CO[C@H](C2)[C@@H]31`: the outcome in data set [2] was inactive. Moreover, the outcome in data set [3] was Active. Also, the Activity result in data set [1] is on record as “Dose-dependent effect”.

As for `N#C[C@]12CC[C@H](O)C3=CO[C@H](Cc4ccc(O)cc41)[C@@H]32`, in data set [1], the Activity result is given as “Dose-dependent effect”.

In the case of `N#C[C@]12CC[C@H](O)[C@@H]3CO[C@H](Cc4ccc(O)cc41)[C@@H]32`, in data set [1], the Activity result is “Dose-dependent effect”.

In the case of `N#C[C@]12CCC3(OCCO3)C3=CO[C@H](Cc4ccc(O)cc41)[C@@H]32`, the Activity result in data set [4] is “Non-toxic”.

For `N#C[C@]12CCC3(OCCO3)C3=CO[C@H](Cc4cc(-c5ccccc5)c(O)cc41)[C@@H]32`, the Activity entry in data set [1] is listed as “Dose-dependent effect”.
